Measured values taken from patent publication US8540966B2, “Contrast agents endowed with high relaxivity” (Bracco Imaging S.p.A., priority 2004, dated 2013).
Values belong to the compound of their own block, whether it stands above or below them.

Columns and labels:
[1] = 1/T1 NMRD profiles: relaxivity over a range of magnetic field strength; type: physicochemical; settings: from 0.2 to 3 MHz; 25° C., 1 mM aqueous solution (FIG. 6)
Procedure: As an example, the relaxivity profile of the gadolinium complex of the chelating ligand of the invention 2b (hereinafter referred to as Gd-2b), in the above magnetic field range, has been compared with that of a marketed NSA, i.e. Magnevist®, and that of a blood pool agent, i.e. the macromolecular adduct between Gd-DTPA(BOM)3 and BSA (Bovine Serum Albumin) (FIG. 6).
The corresponding profile for the above blood pool agent is quite different.
A further test was performed in which the relaxivity values r1p, shown by the compounds of the invention as measured at 20 MHz and 298K, were plotted against the molecular reorientational values τR of the same compounds. The stability of the relaxivity properties shown by the compounds of the invention was tested. In a first experiment, the 1/T1 NMRD profiles for some compounds of the invention were acquired over a range of magnetic field strengths ranging from 0.01 to 130 MHz. […]
(§1) Conversely, the relaxivity improvement shown by the blood pool agent rapidly falls dawn over the same range of magnetic field strength. In addition to the above, please find below as per table 7, other relaxivity values, measured as above indicated, for some other representative compounds of the invention.

[2] = Relaxivity determination (r1p) at 20 MHz, 298K, pH 7; type: physicochemical
Procedure: As far as the relaxation enhancement property is concerned, a paramagnetic Gd(III) complex is characterized by its relaxivity (r1p) which represents the increase of the proton relaxation rate of an aqueous solution of the Gd(III) complex in comparison to the proton relaxation rate of neat water (R1°). The relaxivity is usually measured at 298K and 20 MHz (0.5 T).
In order to best evaluate the relaxivity properties and the parameters affecting the relaxivity of the agents of the invention, some comparative tests have been performed. In a first experiment, the relaxivity of a number of Gd-based chelated compounds having different molecular weight, all derived from the following [Gd(DTPA-monophosphonate)]^3− basic backbone structure (r1p at 20 MHz and 298K: 6.1 mM^−1 s^−1) of formula
Tested compounds include the Gd-complex of the chelating compounds 1b and 2b of the invention (hereinafter Gd-1b and Gd-2b) as well as a number of different derivatives of the aforementioned backbone moiety selected in order to cover a range of molecular weights of up to about 1800 Dalton. The relaxivity of all of the tested compounds were measured at 298K and 20 MHz and pH 7. The obtained values, listed in table 5 below (together with the structure of the compounds) have also been plotted against the MW of the complexes (see FIG. 1).
A second experiment was performed to test the relaxivity of different compounds of the invention, marketed NSA, known LDA and other systems, all containing one coordinated water molecule (q=1). The data were registered at 298K and 20 MHz and pH=7, and plotted against their corresponding MW. Relaxivity data relating to LDA P760 and P792 (LDA contrast agents) are based on literature cited below.
as §1

[3] = 298K, 20 MHz, pH=7, q=1 complexes (Table 6)
[4] = measured as above indicated: 298K, 20 MHz (Table 7)
[5] = 298K, 20 MHz, pH 7, q=1 Gd complexes derived from the DTPA-monophosphonate backbone (Table 5)

R1p (relaxivity) [2, 3]: 5.5 mM⁻¹ s⁻¹
Compound: O=C(O)CN1CCN(CC(=O)O)CCN(C(COCc2ccccc2)C(=O)O)CCN(CC(=O)O)CC1 (stereo not drawn) [Compound B19106]

R1p (relaxivity) [2, 3]: 7.5 mM⁻¹ s⁻¹
Compound: O=C(O)CN1CCN(C(COCc2ccccc2)C(=O)O)CCN(C(COCc2ccccc2)C(=O)O)CCN(C(COCc2ccccc2)C(=O)O)CC1 (stereo not drawn) [Compound B19406]

R1p (relaxivity) [2, 3]: 6.5 mM⁻¹ s⁻¹
Compound: O=C(O)CN1CCN(C(COCc2ccccc2)C(=O)O)CCN(CC(=O)O)CCN(C(COCc2ccccc2)C(=O)O)CC1 (stereo not drawn) [Compound B19236]

Further lines, the compound ahead of its results:

Compound: Gd-DTPA
relaxivity profile versus field strength [1]: quite stable though very low

Compound: O=C(O)CN1CCN(CC(=O)O)CCN(CC(=O)O)CCN(CC(=O)O)CC1 [Gd-DOTA]
R1p (relaxivity) [2, 3]: 4.7 mM⁻¹ s⁻¹

Compound: CC1(N(CC(=O)O)CC(=O)O)CN(C(CCC(=O)N(CCN(CCC(=O)NC(CO)(CO)CO)CCC(=O)NC(CO)(CO)CO)CCN(CCC(=O)NC(CO)(CO)CO)CCC(=O)NC(CO)(CO)CO)C(=O)O)CCN(C(CCC(=O)N(CCN(CCC(=O)NC(CO)(CO)CO)CCC(=O)NC(CO)(CO)CO)CCN(CCC(=O)NC(CO)(CO)CO)CCC(=O)NC(CO)(CO)CO)C(=O)O)C1 (stereo not drawn) [Gd-15a]
R1p (relaxivity) [2, 4]: 16.7 mM⁻¹ s⁻¹

Compound: O=C(O)CN(CCN(CCN(CC(=O)O)[C@@H](Cc1c[nH]c2ccccc12)C(=O)O)CP(=O)(O)O)C(Cc1c[nH]c2ccccc12)C(=O)O (stereo partly drawn) [B 22836]
R1p (relaxivity) [2, 5]: 7.9 mM⁻¹ s⁻¹

Compound: O=C(CC[C@@H](C(=O)O)N1CCN([C@@H](CCC(=O)NC(COC2OC(CO)C(O)C(O)C2O)(COC2OC(CO)C(O)C(O)C2O)COC2OC(CO)C(O)C(O)C2O)C(=O)O)CCN([C@@H](CCC(=O)NC(COC2OC(CO)C(O)C(O)C2O)(COC2OC(CO)C(O)C(O)C2O)COC2OC(CO)C(O)C(O)C2O)C(=O)O)CCN([C@@H](CCC(=O)NC(COC2OC(CO)C(O)C(O)C2O)(COC2OC(CO)C(O)C(O)C2O)COC2OC(CO)C(O)C(O)C2O)C(=O)O)CC1)NC(COC1OC(CO)C(O)C(O)C1O)(COC1OC(CO)C(O)C(O)C1O)COC1OC(CO)C(O)C(O)C1O (stereo partly drawn) [Gd-7c]
R1p (relaxivity) [2, 4]: 20.4 mM⁻¹ s⁻¹

Compound: O=C(O)CCC(C(=O)O)N1CCN(Cc2cccc(C(=O)NCC(CNC(=O)C(O)C(O)C(O)C(O)CO)(CNC(=O)C(O)C(O)C(O)C(O)CO)CNC(=O)C(O)C(O)C(O)C(O)CO)c2)CCN(C(CCC(=O)O)C(=O)O)CCN(C(CCC(=O)O)C(=O)O)CC1 (stereo not drawn) [Gd-1d]
R1p (relaxivity) [2, 4]: 24 mM⁻¹ s⁻¹

Compound: O=C(O)CN(CCN(CCN(CC(=O)O)[C@@H](COCc1ccccc1)C(=O)O)CP(=O)(O)O)[C@@H](COCc1ccccc1)C(=O)O [B 22666]
R1p (relaxivity) [2, 5]: 7.9 mM⁻¹ s⁻¹

Compound: O=C(O)CN(CCN(CCN(CC(=O)O)[C@@H](Cc1ccccc1)C(=O)O)CP(=O)(O)O)[C@@H](Cc1ccccc1)C(=O)O [B 22606]
R1p (relaxivity) [2, 5]: 7.7 mM⁻¹ s⁻¹

Compound: O=C(O)CN(CCN(CC(=O)O)CC(=O)O)CCN(CC(=O)O)CC(=O)O [Gd-DTPA]
R1p (relaxivity) [2, 3]: 4.7 mM⁻¹ s⁻¹
